Patent US20240174636A1, “NOVEL INDOLEAMINE 2,3-DIOXYGENASE INHIBITORS, PROCESSES FOR THE PREPARATION THEREOF AND PHARMACEUTICAL COMPOSITIONS COMPRISING THE SAME” (YUHAN CORPORATION, priority 2021, published 2024)

Molecular target: IDO1 (Homo sapiens, UniProt P14902)
Assay: IDO1 cellular activity using HEK293 cells transfected with IDO1 expression vector
Assay type: cell-based
Parameters: host or cells: HEK293 cells, transient transfection with Lipofectamine 2000
Conditions: 24 h compound incubation, read-out: Inhibitory Activity (IC50)
Method: HEK293 cells were seeded at a density of 30000 cells/well in 100 μl of a culture medium (DMEM supplemented with 10% FBS, penicillin 100 U/ml, and streptomycin 100 μg/ml) in a tissue culture-treated 96 well plate. The cells were cultured in a 5% carbon dioxide incubator for 24 hours, transfected with the IDO1 expression vector (component A in IDO1 cell-based assay kit, catalog #72031, BPS Bioscience) using Lipofectamine 2000 (Life Technologies, #11668027), and then cultured for 24 hours in a 5% carbon dioxide incubator to express the IDO protein.
The activities were measured using a IDO1 cell-based assay kit (catalog #72031, BPS Bioscience). Specifically, an assay medium was prepared by diluting IDO1 assay medium substrate 1 and IDO1 assay medium supplement 2 in a culture medium at a ratio of 1:100, respectively. The test compounds were diluted to the predetermined concentrations in the fresh assay medium. After removing the culture medium using a multi-pipet, 200 μl of each assay medium containing the test material was added into respective well, followed by incubating in a 5% carbon dioxide incubator for 24 hours. The next day, 140 μl of culture medium from each well was transferred to a new 96-well plate. 10 μl of 6.1N trichloroacetic acid was added into each well, which was then cultured in a 50° C. incubator for 30 minutes. The plate was centrifuged at 2500 rpm for 10 minutes to settle any sediment. A detection reagent solution was prepared by diluting the detection reagent (component D in IDO1 cell-based assay kit, catalog #72031 BPS Bioscience) 50-fold in acetic acid. 100 μl of the supernatant taken from the centrifuged plate was transferred to a new transparent 96-well plate and then 100 μl of the detection reagent solution was added thereto. After reacting at room temperature for 10 minutes, absorbance was measured at 480 nm wavelength. For analysis of the results, the absorbance (At) of the well containing HEK293 cells in which IDO protein was expressed without treatment of an inhibitor was 100%; and the absorbance (Ab) of the well containing HEK293 cells in which IDO protein was not expressed was 0. The % absorbance was calculated according to the following equation: % Absorbance=(A−Ab)/(At−Ab), A=absorbance of the well treated with the test compound.

IDO1, sequence (P14902 whole entry): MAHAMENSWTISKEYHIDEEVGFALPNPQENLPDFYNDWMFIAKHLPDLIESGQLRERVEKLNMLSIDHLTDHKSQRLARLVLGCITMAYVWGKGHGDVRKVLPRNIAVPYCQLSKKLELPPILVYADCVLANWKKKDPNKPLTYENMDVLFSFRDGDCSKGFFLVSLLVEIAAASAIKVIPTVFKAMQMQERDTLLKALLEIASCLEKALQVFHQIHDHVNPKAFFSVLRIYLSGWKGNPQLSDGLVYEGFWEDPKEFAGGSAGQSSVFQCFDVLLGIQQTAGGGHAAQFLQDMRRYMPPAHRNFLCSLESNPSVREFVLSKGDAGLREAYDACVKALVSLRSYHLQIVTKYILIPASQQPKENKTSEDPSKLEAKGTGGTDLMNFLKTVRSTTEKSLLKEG

Structure (SMILES)	IC50 [nM]
C[C@H](C[C@H]1CC[C@@H](c2ccnc3ccc(F)cc32)CC1)Nc1nc2ccc(Cl)c(Cl)c2o1 [Example 46, 6,7-dichloro-N-((R)-1-((cis)-4-(6-fluoroquinolin-4-yl)cyclohexyl)propan-2-yl)benzo[d]oxazol-2-amine]	17.2
C[C@H](C[C@H]1CC[C@@H](c2ccnc3ccc(F)cc32)CC1)Nc1nc(Cl)nc2c(OC(F)(F)F)cccc12 [Example 71, 2-chloro-N-((R)-1-((cis)-4-(6-fluoroquinolin-4-yl)cyclohexyl)propan-2-yl)-8-(trifluoromethoxy)quinazolin-4-amine]	276
COc1cccc2c(N[C@H](C)C[C@H]3CC[C@H](c4ccnc5ccc(F)cc54)CC3)nc(Cl)nc12 [Example 52, 2-chloro-N-((R)-1-((trans)-4-(6-fluoroquinolin-4-yl)cyclohexyl)propan-2-yl)-8-methoxyquinazolin-4-amine]	260
C[C@H](C[C@H]1CC[C@@H](c2ccnc3ccc(F)cc32)CC1)Nc1nc2cc(F)ccc2o1 [Example 36, 5-fluoro-N-((R)-1-((cis)-4-(6-fluoroquinolin-4-yl)cyclohexyl)propan-2-yl)benzo[d]oxazol-2-amine]	5.7
C[C@H](C[C@H]1CC[C@H](c2ccnc3ccc(F)cc32)CC1)Nc1nc(Cl)nc2cc(F)ccc12 [Example 54, 2-chloro-7-fluoro-N-((R)-1-((trans)-4-(6-fluoroquinolin-4-yl)cyclohexyl)propan-2-yl)quinazolin-4-amine]	43.6
C[C@H](C[C@H]1CC[C@@H](c2ccnc3ccc(F)cc32)CC1)Nc1nc(Cl)nc2cc(Br)ccc12 [Example 64, 7-bromo-2-chloro-N-((R)-1-((cis)-4-(6-fluoroquinolin-4-yl)cyclohexyl)propan-2-yl)quinazolin-4-amine]	38.8
COc1ccc2c(N[C@H](C)C[C@H]3CC[C@H](c4ccnc5ccc(F)cc54)CC3)nc(Cl)nc2c1 [Example 59, 2-chloro-N-((R)-1-((trans)-4-(6-fluoroquinolin-4-yl)cyclohexyl)propan-2-yl)-7-methoxyquinazolin-4-amine]	19.4
C[C@H](C[C@H]1CC[C@@H](c2ccnc3ccc(F)cc32)CC1)Nc1nc(Cl)nc2ccc(F)cc12 [Example 60, 2-chloro-6-fluoro-N-((R)-1-((cis)-4-(6-fluoroquinolin-4-yl)cyclohexyl)propan-2-yl)quinazolin-4-amine]	61.1
C[C@H](C[C@H]1CC[C@@H](c2ccnc3ccc(F)cc32)CC1)Nc1nc2c(Cl)cccc2s1 [Example 35, 4-chloro-N-((R)-1-((cis)-4-(6-fluoroquinolin-4-yl)cyclohexyl)propan-2-yl)benzo[d]thiazol-2-amine]	105
C[C@H](C[C@H]1CC[C@H](c2ccnc3ccc(F)cc32)CC1)Nc1nc(Cl)nc2c(F)cccc12 [Example 50, 2-chloro-8-fluoro-N-((R)-1-((trans)-4-(6-fluoroquinolin-4-yl)cyclohexyl)propan-2-yl)quinazolin-4-amine]	62.3
C[C@H](C[C@H]1CC[C@H](c2ccnc3ccc(F)cc32)CC1)Nc1nc(Cl)nc2cc(C#N)ccc12 [Example 55, 2-chloro-4-(((R)-1-((trans)-4-(6-fluoroquinolin-4-yl)cyclohexyl)propan-2-yl)amino)quinazolin-7-carbonitrile]	28.2
C[C@H](C[C@H]1CC[C@H](c2ccnc3ccc(F)cc32)CC1)Nc1nc(Cl)nc2c(OC(F)(F)F)cccc12 [Example 53, 2-chloro-N-((R)-1-((trans)-4-(6-fluoroquinolin-4-yl)cyclohexyl)propan-2-yl)-8-(trifluoromethoxy)quinazolin-4-amine]	57.4
C[C@H](C[C@H]1CC[C@@H](c2ccnc3ccc(F)cc32)CC1)Nc1nc(Cl)nc2cc(F)ccc12 [Example 62, 2-chloro-7-fluoro-N-((R)-1-((cis)-4-(6-fluoroquinolin-4-yl)cyclohexyl)propan-2-yl)quinazolin-4-amine]	56.6
COc1ccc2c(N[C@H](C)C[C@H]3CC[C@@H](c4ccnc5ccc(F)cc54)CC3)nc(Cl)nc2c1 [Example 67, 2-chloro-N-((R)-1-((cis)-4-(6-fluoroquinolin-4-yl)cyclohexyl)propan-2-yl)-7-methoxyquinazolin-4-amine]	47.5
Cc1ccc2c(N[C@H](C)C[C@H]3CC[C@H](c4ccnc5ccc(F)cc54)CC3)nc(Cl)nc2c1 [Example 57, 2-chloro-N-((R)-1-((trans)-4-(6-fluoroquinolin-4-yl)cyclohexyl)propan-2-yl)-7-methylquinazolin-4-amine]	25.2
C[C@H](C[C@H]1CC[C@@H](c2ccnc3ccc(F)cc32)CC1)Nc1nc(Cl)nc2c(Cl)cccc12 [Example 68, 2,8-dichloro-N-((R)-1-((cis)-4-(6-fluoroquinolin-4-yl)cyclohexyl)propan-2-yl)quinazolin-4-amine]	50.5
C[C@H](C[C@H]1CC[C@H](c2ccnc3ccc(F)cc32)CC1)Nc1nc(Cl)nc2cc(Cl)ccc12 [Example 41, 2,7-dichloro-N-((R)-1-((trans)-4-(6-fluoroquinolin-4-yl)cyclohexyl)propan-2-yl)quinazolin-4-amine]	7.6
C[C@H](C[C@H]1CC[C@@H](c2ccnc3ccc(F)cc32)CC1)Nc1nc(Cl)nc2ccc(Cl)cc12 [Example 61, 2,6-dichloro-N-((R)-1-((cis)-4-(6-fluoroquinolin-4-yl)cyclohexyl)propan-2-yl)quinazolin-4-amine]	406
C[C@H](C[C@H]1CC[C@@H](c2ccnc3ccc(F)cc32)CC1)Nc1nc2cccc(F)c2o1 [Example 37, 7-fluoro-N-((R)-1-((cis)-4-(6-fluoroquinolin-4-yl)cyclohexyl)propan-2-yl)benzo[d]oxazol-2-amine]	7.6
C[C@H](C[C@H]1CC[C@H](c2ccnc3ccc(F)cc32)CC1)Nc1nc(Cl)nc2c(Cl)cccc12 [Example 51, 2,8-dichloro-N-((R)-1-((trans)-4-(6-fluoroquinolin-4-yl)cyclohexyl)propan-2-yl)quinazolin-4-amine]	124
C[C@H](C[C@H]1CC[C@@H](c2ccnc3ccc(F)cc32)CC1)Nc1nc2ccc(F)c(F)c2o1 [Example 47, 6,7-difluoro-N-((R)-1-((cis)-4-(6-fluoroquinolin-4-yl)cyclohexyl)propan-2-yl)benzo[d]oxazol-2-amine]	5.5
C[C@H](C[C@H]1CC[C@H](c2ccnc3ccc(F)cc32)CC1)Nc1nc(Cl)nc2ccc(F)cc12 [Example 48, 2-chloro-6-fluoro-N-((R)-1-((trans)-4-(6-fluoroquinolin-4-yl)cyclohexyl)propan-2-yl)quinazolin-4-amine]	45.4
C[C@H](C[C@H]1CC[C@@H](c2ccnc3ccc(F)cc32)CC1)Nc1nccc2cc(Cl)ccc12 [Example 34, 6-chloro-N-((R)-1-((cis)-4-(6-fluoroquinolin-4-yl)cyclohexyl)propan-2-yl)isoquinolin-1-amine]	68.6
C[C@H](C[C@H]1CC[C@@H](c2ccnc3ccc(F)cc32)CC1)Nc1nc(Cl)nc2c(F)cccc12 [Example 69, 2-chloro-8-fluoro-N-((R)-1-((cis)-4-(6-fluoroquinolin-4-yl)cyclohexyl)propan-2-yl)quinazolin-4-amine]	18.8
C[C@H](C[C@H]1CC[C@@H](c2ccnc3ccc(F)cc32)CC1)Nc1nccc2cc(F)ccc12 [Example 33, 6-fluoro-N-((R)-1-((cis)-4-(6-fluoroquinolin-4-yl)cyclohexyl)propan-2-yl)isoquinolin-1-amine]	116
Cc1ccc2c(N[C@H](C)C[C@H]3CC[C@@H](c4ccnc5ccc(F)cc54)CC3)nc(Cl)nc2c1 [Example 65, 2-chloro-N-((R)-1-((cis)-4-(6-fluoroquinolin-4-yl)cyclohexyl)propan-2-yl)-7-methylquinazolin-4-amine]	16.1
C[C@H](C[C@H]1CC[C@@H](c2ccnc3ccc(F)cc32)CC1)Nc1nc2cc(F)c(Cl)cc2o1 [Example 43, 6-chloro-5-fluoro-N-((R)-1-((cis)-4-(6-fluoroquinolin-4-yl)cyclohexyl)propan-2-yl)benzo[d]oxazol-2-amine]	6.3
C[C@H](C[C@H]1CC[C@H](c2ccnc3ccc(F)cc32)CC1)Nc1nc(Cl)nc2ccc(Cl)cc12 [Example 49, 2,6-dichloro-N-((R)-1-((trans)-4-(6-fluoroquinolin-4-yl)cyclohexyl)propan-2-yl)quinazolin-4-amine]	72
CCOc1ccc2nc(N[C@H](C)C[C@H]3CC[C@@H](c4ccnc5ccc(F)cc54)CC3)oc2c1 [Example 44, 6-ethoxy-N-((R)-1-((cis)-4-(6-fluoroquinolin-4-yl)cyclohexyl)propan-2-yl)benzo[d]oxazol-2-amine]	4.4
